Reference: patent US9873667B2, “Arylsulfanyl compounds and compositions for delivering active agents” (EMISPHERE TECHNOLOGIES INC., priority 2006, dated 2018)

Assays:
[1] = Oral delivery of LHRH with delivery agent; plasma LHRH concentration; type: in vivo, male Sprague-Dawley rats; details: Delivery Agent: 200 mg/kg, LHRH: 1 mg/kg
Protocol: Oral gavage dosing solutions of delivery agent compound and LHRH in phosphate buffer were prepared by mixing. A solution of the delivery agent compound was made either with the sodium salt of the delivery agent compound or by converting the free acid to its sodium salt. A solution of the delivery agent compound was prepared in phosphate buffer and stirred, adding one equivalent of sodium hydroxide (1.0 N) when making the sodium salt. The final dosing solutions were prepared by mixing the delivery agent compound solution with a LHRH stock solution (2.75 ml with a concentration of 20 mg/ml in aqueous solution). The pH was adjusted, if necessary, to between about 7 and 8.8.
(§1) Male Sprague-Dawley rats weighing between about 250-300 g were fasted for 24 hours. A dosing group of five animals was administered one of the dosing solutions. An 11 cm Rusch 8 French catheter was adapted to a 1 ml syringe with a pipette tip. The syringe was filled with the dosing solution by drawing the solution through the catheter, which was then wiped dry. The catheter was placed down the esophagus leaving 1 cm of tubing past the incisors. The dosing solution was administered by pressing the syringe plunger.
Blood samples were collected through retroorbital bleeding of approximately 0.4 ml of blood volume using EDTA tubes at time=0 (pre-dose), 2, 10, 15 and 30 minutes. The five samples from each time period were pooled. Previous studies indicated baseline values of about zero. The maximum absorption at the Tmax is reported below in Table 7. As controls, 4-(3-methyl phenoxy) butyric acid (D.A. “B”), the mesylate salt of (4-(8-(2-hydroxyphenoxy)octyl) morpholine (D.A. “C”), 4-(4-(2-hydroxyphenoxy)butyl) morpholine (D.A. “D”), and 4-(6-(2-hydroxyphenoxy)hexyl) morpholine (D.A. “E”) were also administered according to the same protocol and their results are also shown in FIG. 6.

Blood glucose levels = experiment: Oral delivery of insulin with delivery agent compound; blood glucose by glucometer; type: in vivo, male Sprague-Dawley rats
Protocol: Insulin stock solution (15 mg/ml) (Human zinc insulin, Calbiochem-Novabiochem Corp., La Jolla, Calif.) was prepared with deionized water. Oral dosing compositions containing 200 mg/kg of delivery agent compound and 0.5 mg/kg of insulin in aqueous solution were prepared with the delivery agent compound shown in Table 1 below. Either the sodium salt of the delivery agent compound was used or the free acid was converted to the sodium salt with one equivalent of sodium hydroxide.
The dosing solution was administered to fasted male Sprague-Dawley rats by oral gavage with an average weight of about 225-250 grams. Blood glucose levels were then determined by glucometer (One Touch Ultra®, LifeScan, Inc.) and compared to vehicle control (1 ml/kg of water). Samples were collected prior to dosing (time 0) and at 15, 30, 45 and 60 minutes after dosing. The % glucose reduction values in Table 1 are values found at the C minimum, and are an average % reduction with respect to the number of times the experiment was run for each delivery agent.
0.5 mg/kg of Insulin and 25-100 mg/kg of delivery agent compound (particular amount shown in Table 2 below) was administered to male Sprague-Dawley rats with an average weight of about 225-250 grams. The purpose of this test was to ascertain the dose response of the delivery agent compound. Glucose reduction was determined as set forth in connection with the data in Table 1.
Insulin Titrations were performed with Delivery Agent 29 in order to gauge the effect of varying dosages of insulin.

[2] = system: activated partial thromboplastin time (APTT); experiment: Intracolonic delivery of heparin with delivery agent; clotting time (APTT); type: in vivo, male Sprague-Dawley rats; details: Delivery Agent 50 mg/kg, USP Heparin 25 mg/kg; for Tmax: time of peak APTT
Protocol: Oral gavage and/or intracolonic (IC) dosing solutions containing delivery agent compound and heparin sodium USP were prepared in 25% aqueous propylene glycol. Either the sodium salt of the delivery agent compound was used or the free acid was converted to the sodium salt with one equivalent of sodium hydroxide. The delivery agent compound and heparin (about 166-182 IU/mg) were mixed by vortex as dry powders. This dry mixture was dissolved in 25% v/v aqueous propylene glycol, vortexed, and placed in a sonicator (about 37° C.). The pH was adjusted to about 7 (6.5-8.5) with aqueous NaOH (2N). The dosing solution was sonicated to produce a clear solution. The final volume was adjusted to about 3.0 ml.
as §1, with “about 275-350” for “about 250-300”, “24 hours and anesthetized with ketamine hydrochloride (88 mg/kg) intramuscularly immediately prior to dosing and again as needed to maintain anesthesia.” for “24 hours.”, “animals were” for “animals was”, “solutions. For oral gavage dosing, an” for “solutions. An”, “with” for “with the”
For intracolonic (IC) dosing, a 7.5 cm, 8 French Rusch catheter was adapted to a 1 ml syringe with a pipette tip. The dosing catheter was inserted into the colon through the anus until the tube was no longer visible. The dosing solution was expressed slowly into the colon by pressing the syringe plunger.
Citrated blood samples were collected by cardiac puncture following the administration of ketamine (88 mg/kg), typically at 0.25, 0.5, 1.0 and 1.5 hours after dosing. Heparin absorption was verified by an increase in clotting time measured by the activated partial thromboplastin time (APTT) according to the method of Henry, J. B., Clinical Diagnosis and Management by Laboratory Methods, Philadelphia, Pa., W.B. Saunders (1979), which is hereby incorporated by reference. Previous studies indicated baseline values of about 20 seconds. Results from the animals in each group were averaged for each time points and the highest of these averages (i.e. mean peak APTT) is reported.

[3] = dose response, Delivery Agent Compound 50 mg/kg, Insulin 0.5 mg/kg
[4] = oral gavage, 200 mg/kg Delivery Agent Compound, 0.5 mg/kg Insulin, value at C minimum vs vehicle control

SMILES	melting point	% Glucose Reduction (Blood glucose levels; [4])	other results
COc1ccccc1SCCCCCC(=O)O [Compound 3, 6-(2-Methoxy-phenylsulfanyl)-hexanoic acid]	81 to 82 °C		Tmax [1]: 5 min
COc1ccccc1SCCCCCCCCCC(=O)O [Compound 4, 10-(2-Methoxy-phenylsulfanyl)-decanoic acid]	65 to 66 °C		Tmax [1]: 5 min
O=C(O)CCCCCCCSc1ccccc1O [Compound 5, 8-(2-Hydroxy-phenylsulfanyl)-octanoic acid]	49 to 50 °C		% Glucose Reduction (Blood glucose levels; [3]): −13.5%; % Glucose Reduction (Blood glucose levels; dose response, Delivery Agent Compound 100 mg/kg, Insulin 0.5 mg/kg): −18.2%; Tmax [1]: 5 min
O=C(O)CCCCCCCCCSc1ccccc1O [Compound 8, 10-(2-Hydroxy-phenylsulfanyl)-decanoic acid]	58 to 59 °C		% Glucose Reduction (Blood glucose levels; dose response, Delivery Agent Compound 25 mg/kg, Insulin 0.5 mg/kg): −9.7%; % Glucose Reduction (Blood glucose levels; [3]): −30.5%
Cc1ccc(C)c(SCCC(=O)O)c1 [Compound 9, 3-(2,5-Dimethyl-phenylsulfanyl)-propionic acid]	100 to 102 °C		
COc1ccc(SCCCCCCCC(=O)O)cc1 [Compound 10, 8-(4-Methoxy-phenylsulfanyl)-octanoic acid]	66 to 68 °C		
O=C(O)CCCCCCCSc1ccc(O)cc1 [Compound 11, 8-(4-Hydroxy-phenylsulfanyl)-octanoic acid]	94 to 95 °C		APTT (mean peak) [2]: 300.0 s; Tmax [2]: 30.0 min
O=C(O)CCCSc1ccccc1O [Compound 12, 4-(2-Hydroxy-phenylsulfanyl)-butyric acid]	77 to 78 °C		
COc1ccc(SCC(=O)O)cc1 [Compound 13, (4-Methoxy-phenylsulfanyl)-acetic acid]		−18.2 ± 17.4%	
COc1ccccc1SCCCCCCC(=O)O [Compound 16, 7-(2-Methoxy-phenylsulfanyl)-heptanoic acid]		−38.9 ± 32.7%	
COc1ccccc1SCCCCC(=O)O [Compound 19, 5-(2-Methoxy-phenylsulfanyl)-pentanoic acid]		−33.6 ± 32.4%	
COc1cccc(SCCCCCCCCCC(=O)O)c1 [Compound 20, 10-(3-Methoxy-phenylsulfanyl)-decanoic acid]		−33.9 ± 41.8%	
COc1cccc(SCCCCCC(=O)O)c1 [Compound 21, 6-(3-Methoxy-phenylsulfanyl)-hexanoic acid]		−19.4 ± 6.6%	
COc1cccc(SCCCCCCCC(=O)O)c1 [Compound 22]		−3.7 ± 9.4%	
O=C(O)CCCCSc1cccc(Cl)c1 [Compound 24, 5-(3-Chloro-phenylsulfanyl)-pentanoic acid]		−10.0 ± 17.7%	
O=C(O)CCCCSc1ccccc1Cl [Compound 25, 5-(2-Chloro-phenylsulfanyl)-pentanoic acid]		−16.0 ± 13.4%	
COc1cccc(SCCCC(=O)O)c1 [Compound 27, 4-(3-Methoxy-phenylsulfanyl)-butyric acid]		−47.6 ± 17.4%	
O=C(O)CCCSc1cccc(Cl)c1 [Compound 29, 4-(3-Chloro-phenylsulfanyl)-butyric acid]			% Glucose Reduction (Blood glucose levels; insulin titration, Delivery Agent 200 mg/kg, Dose of Insulin 0.00 mg/kg): −6.8%; % Glucose Reduction (Blood glucose levels; insulin titration, Delivery Agent 200 mg/kg, Dose of Insulin 0.25 mg/kg): −31.4%; % Glucose Reduction (Blood glucose levels; insulin titration, Delivery Agent 200 mg/kg, Dose of Insulin 0.50 mg/kg): −30.8%

SMILES	melting point	% Glucose Reduction (Blood glucose levels; [4])	other results
O=C(O)CCCCCSc1cccc(Cl)c1 [Compound 32, 6-(3-Chloro-phenylsulfanyl)-hexanoic acid]		−15.2 ± 28.9%	
O=C(O)CCCCCCCSc1ccc(Cl)cc1 [Compound 33, 8-(4-Chloro-phenylsulfanyl)-octanoic acid]	92 to 93 °C		
O=C(O)CCCSc1ccc(Cl)cc1 [Compound 34, 4-(4-Chloro-phenylsulfanyl)-butyric acid]	100 to 101 °C		
O=C(O)CCCCCSc1ccc(O)cc1 [Compound 35, 6-(4-Hydroxy-phenylsulfanyl)-hexanoic acid]	92 to 94 °C		APTT (mean peak) [2]: 100.0 s; Tmax [2]: 30.0 min
O=C(O)CSc1cc(Cl)ccc1Cl [Compound 40, (2,5-dichloro-phenylsulfanyl)-acetic acid]		−6.0 ± 17.5%	
O=C(O)CSc1ccc(Cl)c(Cl)c1 [Compound 42, (3,4-dichloro-phenylsulfanyl)-acetic acid]		−22.1 ± 5.4%	
O=C(O)CCSc1ccccc1Cl [Compound 44, 3-(2-Chloro-phenylsulfanyl)-propionic acid]		−7.8 ± 16.5%	
O=C(O)CCSc1cccc(Cl)c1 [Compound 45, 3-(3-Chloro-phenylsulfanyl)-propionic acid]		−6.5 ± 21.2%	
O=C(O)CSc1cccc(O)c1 [Compound 46, (3-Hydroxy-phenylsulfanyl)-acetic acid]		0.3 ± 27.7%	
O=C(O)CCCSc1cc(Cl)ccc1Cl [Compound 50, 4-(2,5-dichloro-phenylsulfanyl)-butyric acid]		−15.8 ± 10.6%	
O=C(O)CSc1cccc(F)c1 [Compound 51, (3-Fluoro-phenylsulfanyl)-acetic acid]		−24.9 ± 6.2%	
O=C(O)CCCSc1ccc(Cl)c(Cl)c1 [Compound 53, 4-(3,4-dichloro-phenylsulfanyl)-butyric acid]		−14.8 ± 7.0%	
O=C(O)CCCSc1ccccc1F [Compound 54, 4-(2-Fluoro-phenylsulfanyl)-butyric acid]		−37.4 ± 26.0%	
O=C(O)CSc1ccc(F)cc1 [Compound 55, (4-Fluoro-phenylsulfanyl)-acetic acid]		−20.9 ± 17.5%	
O=C(O)CCCSc1ccc(F)cc1 [Compound 56]		−4.5 ± 11.1%	
O=C(O)CCCCCSc1ccc(F)cc1 [Compound 57, 6-(4-Fluoro-phenylsulfanyl)-hexanoic acid]		−11.0 ± 15.7%	
Cc1ccc(C)c(SCC(=O)O)c1 [Compound 58, (2,5-Dimethyl-phenylsulfanyl)-acetic acid]	73 to 74 °C	−18.2%	
